Common to all, as to assay: DTP human tumour cell line panel, 48 h
Assay [1] has as its system COLO 205 colon.
For assay [2], the system named is DU-145 prostate.
The subject of assay [3] is HCC-2998 colon.
The test system of assay [4] is HCT-116 colon.
Assay [5] deals with K-562 leukemia.
Assay [6] has as its system OVCAR-8 ovarian.
For assay [7], the system named is TK-10 renal.
Assay [8] relates to UACC-257 melanoma.
Assay [9] relates to A498 renal.
Assay [10] concerns BT-549 breast.

The structures appear in SMILES notation. Where “and” joins values, the source holds several entries; their conditions need not be identical. Equal values may be shown once.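 A five-concentration, 48-hour dose response in 96-well plates underlies each endpoint, interpolated linearly between surrounding concentrations. GI50 = concentration required for 50% inhibition of growth. TGI denotes the concentration required for complete inhibition of growth.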

In the case of `CCOC(=O)/C=C/C(C(=O)/C=C/c1ccc(O)c(OC)c1)=C(O)\C=C\c1ccc(O)c(OC)c1`, the GI50 is 3.14 µM in [1]; 4.43 µM in [2]; 1.77 µM in assay [3]; 1.31 µM in [4]; 5.66 µM in assay [5]; 2.21 µM in [6]. The values for the GI50 in [7] and in [8] were 5.3 µM and 2.06 µM, respectively. Further, the TGI was 12.8 µM in assay [1]; 18.7 µM in [2]; 3.74 µM in assay [3]; 3.24 µM in assay [4]; > 100 µM in assay [5]; 5.91 µM in [6]. The total growth inhibition concentration (TGI) in assay [7] turned out to be 29.2 µM; in assay [8], 4.9 µM.

Regarding `COc1ccc2nc3cc(Cl)ccc3c(NCCCNCCC(C)O)c2c1` (stereo not given), the concentration for 50% growth inhibition (GI50) is 0.42 µM in [9]; 1.73 µM in assay [10]; 0.217 µM in assay [1]; 0.302 µM in assay [2]; 0.0569 µM in [4]; 0.426 µM in assay [6]. The GI50 in assay [7] was 0.497 µM; in [8], 1.63 µM. Moreover, the TGI in assay [9] amounted to 1.54 µM; in assay [10], 4.13 µM; in [1], 1.29 µM; in [2], 1.24 µM; in assay [4] it was 1.54 µM; in [6] it was 2.54 µM. Besides, the total growth inhibition concentration (TGI) in [7] stood at 2.94 µM; in assay [8], 3.43 µM.

In the case of `COc1cc2c[n+](C)c3c4ccccc4ccc3c2cc1OC` (tested in a mixture with another compound), the GI50 in assay [10] is 11 µM; in assay [1], 1.46 µM; in assay [2], 13.5 µM; in [3], 6.36 µM; in assay [4], 2.55 µM; in [5], 2.29 µM. Further, the GI50 in assay [6] is 3.57 µM; in [8] it was 2.11 µM. Moreover, the TGI in [10] was 24.6 µM; in [1], 5.02 µM and 14 µM; in [2], 69.6 µM; in [3], 21.3 µM; in [4], 27.2 µM; in assay [6], 31.7 µM. Also, the total growth inhibition concentration (TGI) was 87.3 µM in assay [7]; 6.15 µM and 49 µM in [8].

In the case of `O=C(O)c1cc2cc(OCc3ccccc3)c(OCc3ccccc3)cc2[nH]1`, the GI50 in [10] is 18.5 µM; in [1], 19.9 µM; in assay [2] it was 32.8 µM; in [3], 18.7 µM; in assay [4] it was 17.1 µM; in [5], 29.3 µM. Moreover, the GI50 in assay [6] is 26.9 µM; in [7] it was 24 µM; in assay [8], 22.2 µM. For the same molecule, the TGI is 35.6 µM in [10]; 36.1 µM in [1]; > 100 µM in assay [2]; 34.7 µM in assay [3]; 30.8 µM in [4]; > 100 µM in assay [5]. Besides, the TGI in [6] stood at 95.9 µM; in [7], 70.6 µM; in assay [8], 62.9 µM.

Take `CO[C@@H]1/C=C(C)/C=C/[C@@H](C)/C=C(\C)C(=O)OC(/C(C)=C/C=C(\C)CNC(=O)[C@H](CO)NC=O)[C@@H](C)/C=C/C=C/[C@H](OC)CC/C=C(C)/C=C/C1` (stereo not given in full): the 50% growth inhibitory concentration (GI50) is < 0.005 µM in assay [10]; 0.00816 µM in [1]; 0.169 µM in assay [2]; < 0.005 µM in assay [4]; < 0.005 µM in assay [5]; 0.0105 µM in assay [6]. Besides, the results for the GI50 in [7] and in assay [8] were < 0.005 µM and 0.0238 µM, respectively. Also, the TGI in assay [10] came out at 12.1 µM; in assay [1], 0.627 µM; in assay [2], 14.5 µM; in [4] it was 6.11 µM; in [5], 0.238 µM; in assay [6] it was 3.18 µM. Besides, the total growth inhibition concentration (TGI) in assay [7] is 0.236 µM; in assay [8], 0.0365 µM.

In the case of `COc1cc2c(cc1O)CC13CCC(=O)N1CCc1cc(OC)c(O)c-2c13` (stereo not given), the TGI in [9], in [1], in assay [3], in [4], in [5] and in [6] was > 68.1 µM in each case. The concentration for total growth inhibition (TGI) in assay [7] and in assay [8] was > 68.1 µM in each case.

Turning to `COc1ccc(-c2ccc(-c3ccc(-c4ccc(C(=N)N)cc4)s3)s2)cc1OC`, the GI50 in assay [9] was 11 µM; in [10] it was 17.3 µM; in [1], 1.37 µM; in assay [2], 0.478 µM; in [5], 1.9 µM; in assay [6], 3.76 µM. For the same molecule, the GI50 in [8] was 22 µM. The TGI in assay [9] is 27.8 µM; in assay [10] it was 46.8 µM; in assay [1], 4.57 µM; in assay [2], 2.23 µM; in assay [5], 5.47 µM; in [6] it was > 100 µM. In [8], this molecule had a total growth inhibition concentration (TGI) of 54.3 µM.

For the molecule `C=C1C(=O)O[C@H]2[C@H]1CC/C(COC(=O)CSCC(=O)OC/C1=C/CC[C@@]3(C)O[C@H]3[C@H]3OC(=O)C(=C)[C@@H]3CC1)=C\CC[C@@]1(C)O[C@@H]21`, the GI50 was 1.42 µM in assay [10]; 0.887 µM in assay [1]; 1.5 µM in [2]; 2.12 µM in [3]; 0.466 µM in assay [4]; 0.636 µM in [5]. Further, the GI50 in [6] was 1.48 µM; in [7] it was 1.69 µM; in [8] it was 1.76 µM. Besides, the TGI was 2.9 µM in assay [10]; 2.44 µM in assay [1]; 3.05 µM in assay [2]; 4.56 µM in assay [3]; 1.59 µM in assay [4]; 4.06 µM in assay [5]. For the same molecule, the TGI in assay [6] worked out at 4.21 µM; in assay [7], 3.27 µM; in [8], 4.3 µM.

`S=C1Nc2ccc(Cl)cc2C2(c3ccccc3)N3CCN=C3NN12` (stereo not given): the GI50 was 30.8 µM in assay [10]; 26.3 µM in assay [1]; 40 µM in assay [2]; 67 µM in assay [3]; 29.4 µM in assay [4]; 24.9 µM in assay [5]. For the same molecule, the figures for the GI50 in assay [6], in assay [7] and in assay [8] were 52.3 µM, 35.1 µM and 37 µM, respectively. For the same molecule, the total growth inhibition concentration (TGI) is > 100 µM in assay [10]; > 100 µM in assay [1]; > 100 µM in assay [2]; > 100 µM in [3]; > 100 µM in assay [4]; 66.1 µM in assay [5]. The concentration for total growth inhibition (TGI) in assay [6], in [7] and in [8] was > 100 µM in each case.
